# In US7465729B2, “Methods of treatment of menopause and perimenopause using eszopiclone” (Sepracor Inc., priority 2004, dated 2008):
# System: women with insomnia secondary to perimenopause or menopause
# Assay: Clinical study: number of nocturnal awakenings due to hot flashes
# Format: in vivo
# Conditions: for Number of Nocturnal Awakenings due to Hot Flashes, Observed Value, Mean (SD) / Number of Nocturnal Awakenings due to Hot Flashes, Observed Value, 25th Percentile / Number of Nocturnal Awakenings due to Hot Flashes, Observed Value, 75th Percentile / Number of Nocturnal Awakenings due to Hot Flashes, Observed Value, Maximum / Number of Nocturnal Awakenings due to Hot Flashes, Observed Value, Median / Number of Nocturnal Awakenings due to Hot Flashes, Observed Value, Minimum / Number of Nocturnal Awakenings due to Hot Flashes, Change from Baseline, 25th Percentile / Number of Nocturnal Awakenings due to Hot Flashes, Change from Baseline, 75th Percentile / Number of Nocturnal Awakenings due to Hot Flashes, Change from Baseline, Maximum / Number of Nocturnal Awakenings due to Hot Flashes, Change from Baseline, Mean (SD) / Number of Nocturnal Awakenings due to Hot Flashes, Change from Baseline, Median / Number of Nocturnal Awakenings due to Hot Flashes, Change from Baseline, Minimum / Number of Nocturnal Awakenings due to Hot Flashes, Change from Baseline, Least Squares Means (SE) [3] / Number of Nocturnal Awakenings due to Hot Flashes, Observed Value, Least Squares Means (SE) [2]: ITT; for Number of Nocturnal Awakenings due to Hot Flashes, Change from Baseline, Least Squares Means (SE) [3]: ANCOVA; for Number of Nocturnal Awakenings due to Hot Flashes, Observed Value, Least Squares Means (SE) [2]: ANOVA
# Procedure: The study was aimed at observing efficacy of eszopiclone 3 mg compared to placebo in the treatment of insomnia secondary to perimenopause or menopause. The study was a multicenter, randomized, double-blind, placebo-controlled, parallel-group study. […] The primary method of analysis compared the post-randomization results between the two treatment groups.
# Subjects were women with insomnia secondary to perimenopause or menopause. Subjects were perimenopausal or menopausal and had insomnia symptoms including ≧45 minutes sleep latency (SL) and total sleep time (TST) ≦6 hours. Perimenopausal/menopausal symptoms predated the onset of sleep disturbance symptoms. The patient population was predominately Caucasian (77.2%). The mean age was 49, with a range of 40-60.
# A total of 410 subjects were randomized. Among them, 201 received 3 mg of eszopiclone (ESZ) nightly (at bedtime) for four weeks and 209 received matching placebo (PBO).
smiles,measurement,setting,value
"CN1CCN(C(=O)O[C@H]2c3nccnc3C(=O)N2c2ccc(Cl)cn2)CC1 [Eszopiclone, (+)6-(5-chloropyrid-2-yl)-5-(4-methylpiperazin-1-yl)carbonyloxy-7-oxo-6,7-dihydro-5H-pyrrolo[3-4-b]pyrazine]","Number of Nocturnal Awakenings due to Hot Flashes, Observed Value, Mean (SD)","Baseline (average of all pre-DB observations), 3 mg group",1.3 (1.2)
same,"Number of Nocturnal Awakenings due to Hot Flashes, Observed Value, 25th Percentile","Baseline, 3 mg group",0.3
same,"Number of Nocturnal Awakenings due to Hot Flashes, Observed Value, 75th Percentile","Baseline, 3 mg group",2.0
same,"Number of Nocturnal Awakenings due to Hot Flashes, Observed Value, Maximum","Baseline, 3 mg group",6.0
same,"Number of Nocturnal Awakenings due to Hot Flashes, Observed Value, Median","Baseline, 3 mg group",1.0
same,"Number of Nocturnal Awakenings due to Hot Flashes, Observed Value, Minimum","Baseline, 3 mg group",0.0
same,"Number of Nocturnal Awakenings due to Hot Flashes, Change from Baseline, 25th Percentile","DB Average, 3 mg nightly",−1.1
same,"Number of Nocturnal Awakenings due to Hot Flashes, Change from Baseline, 75th Percentile","DB Average, 3 mg nightly",0.0
same,"Number of Nocturnal Awakenings due to Hot Flashes, Change from Baseline, Maximum","DB Average, 3 mg nightly",1.5
same,"Number of Nocturnal Awakenings due to Hot Flashes, Change from Baseline, Mean (SD)","DB Average, 3 mg nightly",−0.7 (1.0)
same,"Number of Nocturnal Awakenings due to Hot Flashes, Change from Baseline, Median","DB Average, 3 mg nightly",−0.5
same,"Number of Nocturnal Awakenings due to Hot Flashes, Change from Baseline, Minimum","DB Average, 3 mg nightly",−6.0
same,"Number of Nocturnal Awakenings due to Hot Flashes, Observed Value, 25th Percentile","DB Average, 3 mg nightly",0.0
same,"Number of Nocturnal Awakenings due to Hot Flashes, Observed Value, 75th Percentile","DB Average, 3 mg nightly",0.9
same,"Number of Nocturnal Awakenings due to Hot Flashes, Observed Value, Maximum","DB Average, 3 mg nightly",2.7
same,"Number of Nocturnal Awakenings due to Hot Flashes, Observed Value, Mean (SD)","DB Average, 3 mg nightly",0.5 (0.6)
same,"Number of Nocturnal Awakenings due to Hot Flashes, Observed Value, Median","DB Average, 3 mg nightly",0.2
same,"Number of Nocturnal Awakenings due to Hot Flashes, Observed Value, Minimum","DB Average, 3 mg nightly",0.0
same,"Number of Nocturnal Awakenings due to Hot Flashes, Change from Baseline, Least Squares Means (SE) [3]","DB Average, 3 mg nightly",−0.7 (0.1)
same,"Number of Nocturnal Awakenings due to Hot Flashes, Observed Value, Least Squares Means (SE) [2]","DB Average, 3 mg nightly",0.5 (0.1)
same,"nocturnal awakenings due to hot flashes, LS means","Week 1, 3 mg nightly",0.3 per night
same,"Number of Nocturnal Awakenings due to Hot Flashes, Change from Baseline, 25th Percentile","Week 1, 3 mg nightly",−1.2
same,"Number of Nocturnal Awakenings due to Hot Flashes, Change from Baseline, 75th Percentile","Week 1, 3 mg nightly",0.0
same,"Number of Nocturnal Awakenings due to Hot Flashes, Change from Baseline, Maximum","Week 1, 3 mg nightly",0.8
same,"Number of Nocturnal Awakenings due to Hot Flashes, Change from Baseline, Mean (SD)","Week 1, 3 mg nightly",−0.7 (1.0)
same,"Number of Nocturnal Awakenings due to Hot Flashes, Change from Baseline, Median","Week 1, 3 mg nightly",−0.5
same,"Number of Nocturnal Awakenings due to Hot Flashes, Change from Baseline, Minimum","Week 1, 3 mg nightly",−6.0
same,"Number of Nocturnal Awakenings due to Hot Flashes, Observed Value, 25th Percentile","Week 1, 3 mg nightly",0.0
same,"Number of Nocturnal Awakenings due to Hot Flashes, Observed Value, 75th Percentile","Week 1, 3 mg nightly",1.0
same,"Number of Nocturnal Awakenings due to Hot Flashes, Observed Value, Maximum","Week 1, 3 mg nightly",3.0
same,"Number of Nocturnal Awakenings due to Hot Flashes, Observed Value, Mean (SD)","Week 1, 3 mg nightly",0.5 (0.7)
same,"Number of Nocturnal Awakenings due to Hot Flashes, Observed Value, Median","Week 1, 3 mg nightly",0.2
same,"Number of Nocturnal Awakenings due to Hot Flashes, Observed Value, Minimum","Week 1, 3 mg nightly",0.0
same,"Number of Nocturnal Awakenings due to Hot Flashes, Change from Baseline, Least Squares Means (SE) [3]","Week 1, 3 mg nightly",−0.7 (0.1)
same,"Number of Nocturnal Awakenings due to Hot Flashes, Observed Value, Least Squares Means (SE) [2]","Week 1, 3 mg nightly",0.5 (0.1)
same,"Number of Nocturnal Awakenings due to Hot Flashes, Change from Baseline, 25th Percentile","Week 2, 3 mg nightly",−1.0
same,"Number of Nocturnal Awakenings due to Hot Flashes, Change from Baseline, 75th Percentile","Week 2, 3 mg nightly",0.0
same,"Number of Nocturnal Awakenings due to Hot Flashes, Change from Baseline, Maximum","Week 2, 3 mg nightly",2.0
same,"Number of Nocturnal Awakenings due to Hot Flashes, Change from Baseline, Mean (SD)","Week 2, 3 mg nightly",−0.7 (1.0)
same,"Number of Nocturnal Awakenings due to Hot Flashes, Change from Baseline, Median","Week 2, 3 mg nightly",−0.6
same,"Number of Nocturnal Awakenings due to Hot Flashes, Change from Baseline, Minimum","Week 2, 3 mg nightly",−6.0
same,"Number of Nocturnal Awakenings due to Hot Flashes, Observed Value, 25th Percentile","Week 2, 3 mg nightly",0.0
same,"Number of Nocturnal Awakenings due to Hot Flashes, Observed Value, 75th Percentile","Week 2, 3 mg nightly",1.0
same,"Number of Nocturnal Awakenings due to Hot Flashes, Observed Value, Maximum","Week 2, 3 mg nightly",3.0
same,"Number of Nocturnal Awakenings due to Hot Flashes, Observed Value, Mean (SD)","Week 2, 3 mg nightly",0.5 (0.7)
same,"Number of Nocturnal Awakenings due to Hot Flashes, Observed Value, Median","Week 2, 3 mg nightly",0.0
same,"Number of Nocturnal Awakenings due to Hot Flashes, Observed Value, Minimum","Week 2, 3 mg nightly",0.0
same,"Number of Nocturnal Awakenings due to Hot Flashes, Change from Baseline, Least Squares Means (SE) [3]","Week 2, 3 mg nightly",−0.6 (0.1)
same,"Number of Nocturnal Awakenings due to Hot Flashes, Observed Value, Least Squares Means (SE) [2]","Week 2, 3 mg nightly",0.5 (0.1)
same,"Number of Nocturnal Awakenings due to Hot Flashes, Change from Baseline, 25th Percentile","Week 3, 3 mg nightly",−1.0
same,"Number of Nocturnal Awakenings due to Hot Flashes, Change from Baseline, 75th Percentile","Week 3, 3 mg nightly",0.0
same,"Number of Nocturnal Awakenings due to Hot Flashes, Change from Baseline, Maximum","Week 3, 3 mg nightly",1.5
